Measurements as given in patent EP3445382B1, “HARUNGANA MADAGASCARIENSIS LEAF EXTRACT FOR USE IN THE TREATMENT AND/OR PREVENTION OF ACNE” (Société d'Exploitation de Produits pour les Industries …, priority 2016, dated 2017).

Key:
[1] = system: IL-10 release by LPS-stimulated PBMCs; assay: IL-10 release by LPS-stimulated PBMCs (ELISA); format: cell-based, human; conditions: 10^-7 M, LPS 1 µg/ml, 24 hours
Experimental: (§1) In the present example, the potential anti-inflammatory effect of HMA extract was investigated in human peripheral blood mononuclear cells (PBMCs) under stimulated conditions. More precisely, the effect of the test compound was evaluated on IL-8, IL-10 and IL-12 release by LPS-stimulated PBMCs using specific ELISA kits.
(§2) The quantification of anti-inflammatory effects was undertaken as follows: Samples of HMA extract to be analyzed were prepared from a stock solution containing 5% (w/v) in glycerol/ultra-pure water (60/40).
(§3) PBMCs were isolated from whole blood, seeded in 96-well plates and incubated in culture medium for 1 hour. The medium was then replaced by culture medium containing or not (stimulated control) the test compound or the reference compound, i.e., dexamethasone tested at 10^-7 M, and cells were pre-incubated for 1 hour. The inflammatory inducer, LPS (1 µg/ml) was then added and cells were incubated for 24 hours. A non-stimulated control was also performed in parallel. All experimental conditions were performed in n=3.
(§4) After incubation, the culture supernatants were collected in order to quantify IL-8, IL-10 and IL-12 release. […]
(§5) The quantity of IL-8, IL-10 and IL-12 released in the culture supernatants was measured using specific ELISA kits according to the supplier's instructions.
(§6) Raw data were analyzed using Microsoft Excel® software. […]

[2] = system: IL-12 release by LPS-stimulated PBMCs; assay: IL-12 release by LPS-stimulated PBMCs (ELISA); format: cell-based, human; conditions: 10^-7 M, LPS 1 µg/ml
Experimental: as §1, §2, §3, §4, §5, §6

PBMCs = assay: viability assay (alamarBlue) on LPS-stimulated PBMCs; format: cell-based, human; conditions: 10^-7 M
Experimental: as §3
After incubation, the culture supernatants were collected in order to quantify IL-8, IL-10 and IL-12 release. A viability assay was performed on cells according to a standard alamarBlue® protocol.
After treatment, the cells were incubated with alamarBlue® reduced in resorufin via the mitochondrial reduction reactions of metabolically active cells. This transformation is proportional to the number of living cells. The optical density (OD) at 570nm was recorded using a microplate reader (VERSAmax, Molecular Devices).

[3] = system: IL-8 release by LPS-stimulated PBMCs; assay: IL-8 release by LPS-stimulated PBMCs (ELISA); format: cell-based; conditions: Homo sapiens, PBMC; 10^-7 M; LPS 1 µg/ml, 24 hours
Experimental: as §1, §2, §3, §4, §5, §6

[4] = target: T1, pancreatic lipase (PL; 3.1.1.3) (Homo sapiens, UniProt P16233); assay: lipase activity, biochemical test with radioactive triolein substrate; conditions: 1000 nM; 2 hours at 37 °C
T1 sequence (P16233 17-465): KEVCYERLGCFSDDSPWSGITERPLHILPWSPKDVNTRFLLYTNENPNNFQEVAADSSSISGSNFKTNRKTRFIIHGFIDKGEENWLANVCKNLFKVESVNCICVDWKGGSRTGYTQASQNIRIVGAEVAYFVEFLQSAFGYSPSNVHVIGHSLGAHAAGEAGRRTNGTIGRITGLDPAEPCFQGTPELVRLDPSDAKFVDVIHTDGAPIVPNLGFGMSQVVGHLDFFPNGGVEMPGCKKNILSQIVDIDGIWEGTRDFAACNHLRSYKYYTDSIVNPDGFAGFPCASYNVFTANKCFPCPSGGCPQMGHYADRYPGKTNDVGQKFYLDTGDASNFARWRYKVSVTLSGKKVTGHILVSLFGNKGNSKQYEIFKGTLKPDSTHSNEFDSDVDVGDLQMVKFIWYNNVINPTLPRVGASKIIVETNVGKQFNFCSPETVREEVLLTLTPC
Experimental: In the present example, the effect of HMA extract was evaluated on the lipase activity with a biochemical test using a radioactive substrate. The lipase catalyzes the hydrolysis of glycerol-ester (glycerides) and long chain fatty acid emulsions. The substrate of this enzyme is not a simple molecule but a non-aqueous phase of aggregated lipids. The usual method to quantify the lipase activity is titration (pH variation) which is not often efficient for the testing of inhibitory compounds and generates several artifacts. An alternative and more efficient method (followed in the present example) was to use a radioactive complex lipid substrate.
The quantification of lipase activity was undertaken as follows: Samples of HMA extract to be analyzed were prepared from a stock solution containing 5% (w/v) in glycerol/ultra-pure water (60/40).
The compound and the reference (Orlistat tested at 1000 nM) were incubated for 2 hours at 37 °C in presence of the enzyme, pancreatic lipase (PL; 3.1.1.3) at 125 U/ml and the radioactive substrate (3.34 µCi/tube, stable emulsion of triolein at 5.25 mM corresponding to a mix of cold and titriated triolein). A negative control was performed by incubating the substrate alone, without enzyme in the reaction mix, in order to determine the background signal. […]
as §6

[5] = acellular lipid peroxidation, TBARS production (hemin-induced, phosphatidylcholine micelles); format: biochemical; conditions: 10 µM, hemin 5 µM, 1 hour at 37 °C
Experimental: In the present example, the effect of HMA extract was evaluated on oxidative stress. More specifically, its protective effect against lipid peroxidation (acellular reaction) was evaluated by measuring the production of thiobarbituric acid reactive substances (TBARS). The quantification of anti-oxidant capacity was undertaken as follows: Samples of HMA extract to be analyzed were prepared from a stock solution containing 5% (w/v) in glycerol/ultra-pure water (60/40). […] Additional control conditions were also included in the experimental design: without inducer (non-activated condition), 'Interference' controls (test compound added to the reactive medium without micelles of lipids to assess a potential auto-fluorescence of compounds) and 'Quenching' controls (test compound added at the end of reaction to check for potential quenching of the signal directly by the test compounds). […] TBARS thus produced were then evaluated by fluorescence measurement (λex 540 nm; λem 590 nm). The results are expressed as TBARS equivalent, representing the antioxidant activity expressed as Trolox equivalent of the test compound. Raw data were analyzed using Microsoft Excel® software. […]

C[C@@H]1C[C@H]2[C@@H]3CCC4=CC(=O)C=C[C@]4(C)[C@@]3(F)[C@@H](O)C[C@]2(C)[C@@]1(O)C(=O)CO [Dexamethasone, dexamethasone]
% Inhibition (I) or % stimulation (S) [1]: 32 (I) %
inhibition at 0.1 µM ([1]; Homo sapiens, PBMC, inhibition (I), read-out: % Inhibition (I) or % stimulation (S)): 32%
% Inhibition ([2]; 24 hours): >100%
inhibition at 0.1 µM ([2]; Homo sapiens, PBMC, 24 h): 100%
Viability % stimulated control (PBMCs): 88 % stimulated control
inhibition at 0.1 µM [3]: 72%

CCCCCCCCCCC[C@@H](C[C@@H]1OC(=O)[C@H]1CCCCCC)OC(=O)[C@H](CC(C)C)NC=O [Orlistat]
inhibition at 1 µM [4]: 41%

Cc1c(C)c2c(c(C)c1O)CCC(C)(C(=O)O)O2 (centres unmarked) [Trolox, 6-hydroxy-2,5,7,8-tetramethylchroman-2-carboxylic acid]
% Inhibition [5]: 72%
